Laboratory results published in US6355799B1, “Substituted benzene compounds, process for their preparation, and herbicidal and defoliant compositions containing them” (ISK Americas Incorporated, priority 1997, dated 2002).

Key:
Type in all cases: in vivo
[1] = tested on: ivyleaf morningglory (Ipomoea hederacea, IPOHE); experiment: Post-emerge test, greenhouse herbicide activity screening
Summary of the method: (§1)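 Compounds in acetone were track-sprayed at 15-1000 g ai/ha (187 l/ha) on sandy loam pots: pre-emerge one day after seeding, post-emerge at 2-3 leaf stage with 0.25% v/v non-ionic surfactant. Phytotoxicity was rated 14 days later on a 0 (no damage) to 100 (complete death) scale.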

[2] = tested on: sicklepod (Cassia obtusifolia, CASOB); experiment: as above
Summary of the method: as §1

[3] = tested on: green foxtail (Setaria viridis, SETVI); experiment: as above
Summary of the method: as §1

[4] = tested on: johnsongrass (Sorghum halepense, SORHA); experiment: as above
Summary of the method: as §1

[5] = tested on: lambsquarters (Chenopodium album, CHEAL); experiment: as above
Summary of the method: as §1

[6] = tested on: redroot pigweed (Amaranthus retroflexus, AMARE); experiment: as above
Summary of the method: as §1

[7] = tested on: velvetleaf (Abutilon theophrasti, ABUTH); experiment: as above
Summary of the method: as §1

[8] = tested on: large crabgrass (Digitaria sanguinalis, DIGSA); experiment: as above
Summary of the method: as §1

[9] = tested on: barnyardgrass (Echinochloa crus-galli, ECHCG); experiment: as above
Summary of the method: as §1

[10] = tested on: redroot pigweed (Amaranthus retroflexus, AMARE); experiment: Pre-emerge test, greenhouse herbicide activity screening; conditions: pre-emerge; for Pre-emerge Herbicidal Activity AMARE (phytotoxicity rating, scale 0-100): rated 14 days after application, 0 = no damage, 100 = complete death; for Pre-emerge Herbicidal Activity AMARE: phytotoxicity rating 0-100 at 14 days after application
Summary of the method: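 Visual ratings on a 0-100 scale (0 no damage, 100 all plants dead) were taken at 14 days after treatment. Rates of 15-1000 g ai/ha in acetone, 187 l/ha, were sprayed onto soil one day after planting (pre-emerge) or onto 2-3 leaf plants with 0.25% v/v surfactant (post-emerge).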

[11] = tested on: field corn (Zea mays L., var. Dekalb 535, CORN); experiment: Post-emerge test, crop safety; conditions: for Post-emerge Herbicidal Activity CORN (crop damage): phytotoxicity rating 0-100 (0 no damage, 100 complete death), 14 days after application; for Post-emerge Herbicidal Activity CORN: crop damage rating 0-100 at 14 days after application
Summary of the method: (§2)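 Sandy loam pots; pre-emerge: sown 1 d pre-spray, surface-watered after, then bottom-watered. Post-emerge: sown 8–21 d before, 2–3 leaf stage, + 0.25% v/v NIS, bottom-watered. Acetone, 187 l/ha track spray, 15–1000 g ai/ha. 0–100 injury score, day 14.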

[12] = tested on: upland rice (Oryza sp., var. Tebonnet, RICE); experiment: Post-emerge test, crop safety; conditions: for Post-emerge Herbicidal Activity RICE (crop damage): phytotoxicity rating 0-100 (0 no damage, 100 complete death), 14 days after application; for Post-emerge Herbicidal Activity RICE: crop damage rating 0-100 at 14 days after application
Summary of the method: as §2

[13] = tested on: field corn (Zea mays L., var. Dekalb 535, CORN); experiment: Pre-emerge test, crop safety; conditions: pre-emerge; for Pre-emerge crop damage CORN (phytotoxicity rating, scale 0-100): rated 14 days after application, 0 = no damage, 100 = complete death; for Pre-emerge Herbicidal Activity CORN: crop damage, phytotoxicity rating 0-100 at 14 days after application
Summary of the method: (§3)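 Plants grown in 10 cm pots of sandy loam mix received acetone-dissolved compounds through a moving flat-fan nozzle. Doses ranged from 15 to 1000 g ai/ha. Pre-emerge pots were seeded one day earlier, post-emerge pots 8–21 days earlier. Fourteen days on, each pot was graded 0–100 for damage.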

[14] = tested on: upland rice (Oryza sp., var. Tebonnet, RICE); experiment: Pre-emerge test, crop safety; conditions: pre-emerge; for Pre-emerge crop damage RICE (phytotoxicity rating, scale 0-100): rated 14 days after application, 0 = no damage, 100 = complete death; for Pre-emerge Herbicidal Activity RICE: crop damage, phytotoxicity rating 0-100 at 14 days after application
Summary of the method: as §3

[15] = tested on: ivyleaf morningglory (Ipomoea hederacea, IPOHE); experiment: Pre-emerge test, greenhouse herbicide activity screening; conditions: pre-emerge; for Pre-emerge Herbicidal Activity IPOHE (phytotoxicity rating, scale 0-100): rated 14 days after application, 0 = no damage, 100 = complete death; for Pre-emerge Herbicidal Activity IPOHE: phytotoxicity rating 0-100 at 14 days after application
Summary of the method: as §2

[16] = tested on: sicklepod (Cassia obtusifolia, CASOB); experiment: as above; conditions: pre-emerge; for Pre-emerge Herbicidal Activity CASOB (phytotoxicity rating, scale 0-100): rated 14 days after application, 0 = no damage, 100 = complete death; for Pre-emerge Herbicidal Activity CASOB: phytotoxicity rating 0-100 at 14 days after application
Summary of the method: as §2

[17] = tested on: green foxtail (Setaria viridis, SETVI); experiment: as above; conditions: pre-emerge; for Pre-emerge Herbicidal Activity SETVI (phytotoxicity rating, scale 0-100): rated 14 days after application, 0 = no damage, 100 = complete death; for Pre-emerge Herbicidal Activity SETVI: phytotoxicity rating 0-100 at 14 days after application
Summary of the method: as §2

[18] = tested on: johnsongrass (Sorghum halepense, SORHA); experiment: as above; conditions: pre-emerge; for Pre-emerge Herbicidal Activity SORHA (phytotoxicity rating, scale 0-100): rated 14 days after application, 0 = no damage, 100 = complete death; for Pre-emerge Herbicidal Activity SORHA: phytotoxicity rating 0-100 at 14 days after application
Summary of the method: as §2

[19] = tested on: lambsquarters (Chenopodium album, CHEAL); experiment: as above; conditions: pre-emerge; for Pre-emerge Herbicidal Activity CHEAL (phytotoxicity rating, scale 0-100): rated 14 days after application, 0 = no damage, 100 = complete death; for Pre-emerge Herbicidal Activity CHEAL: phytotoxicity rating 0-100 at 14 days after application
Summary of the method: as §2

[20] = tested on: velvetleaf (Abutilon theophrasti, ABUTH); experiment: as above; conditions: pre-emerge; for Pre-emerge Herbicidal Activity ABUTH (phytotoxicity rating, scale 0-100): rated 14 days after application, 0 = no damage, 100 = complete death; for Pre-emerge Herbicidal Activity ABUTH: phytotoxicity rating 0-100 at 14 days after application
Summary of the method: as §2

[21] = tested on: large crabgrass (Digitaria sanguinalis, DIGSA); experiment: as above; conditions: pre-emerge; for Pre-emerge Herbicidal Activity DIGSA (phytotoxicity rating, scale 0-100): rated 14 days after application, 0 = no damage, 100 = complete death; for Pre-emerge Herbicidal Activity DIGSA: phytotoxicity rating 0-100 at 14 days after application
Summary of the method: as §2

[22] = tested on: barnyardgrass (Echinochloa crus-galli, ECHCG); experiment: as above; conditions: pre-emerge; for Pre-emerge Herbicidal Activity ECHCG (phytotoxicity rating, scale 0-100): rated 14 days after application, 0 = no damage, 100 = complete death; for Pre-emerge Herbicidal Activity ECHCG: phytotoxicity rating 0-100 at 14 days after application
Summary of the method: as §2

[23] = 63 g ai/ha, phytotoxicity rating 0-100 (0 no damage, 100 complete death), 14 days after application
[24] = 250 g ai/ha, phytotoxicity rating 0-100 (0 no damage, 100 complete death), 14 days after application
[25] = post-emerge, 63 g ai/ha, phytotoxicity rating 0-100 at 14 days after application
[26] = post-emerge, 250 g ai/ha, phytotoxicity rating 0-100 at 14 days after application

COc1c(Cl)cc(F)c(-n2c(=O)cc(C(F)(F)F)n(C)c2=O)c1NC(=O)C=C(C)C [2-7]
90: Post-emerge Herbicidal Activity IPOHE [1, 24] | Pre-emerge Herbicidal Activity AMARE (phytotoxicity rating, scale 0-100) ([10]; 63 g ai/ha) | Pre-emerge crop damage RICE (phytotoxicity rating, scale 0-100) ([14]; 250 g ai/ha) | Pre-emerge Herbicidal Activity SORHA (phytotoxicity rating, scale 0-100) ([18]; 63 g ai/ha)
10: Post-emerge Herbicidal Activity AMARE [6, 23] | Post-emerge Herbicidal Activity CORN (crop damage) ([11]; 250 g ai/ha) | Pre-emerge crop damage CORN (phytotoxicity rating, scale 0-100) ([13]; 63 g ai/ha)
70: Post-emerge Herbicidal Activity ABUTH [7, 23] | Pre-emerge crop damage CORN (phytotoxicity rating, scale 0-100) ([13]; 250 g ai/ha) | Pre-emerge Herbicidal Activity IPOHE (phytotoxicity rating, scale 0-100) ([15]; 63 g ai/ha)
95: Post-emerge Herbicidal Activity ABUTH [7, 24] | Pre-emerge Herbicidal Activity SETVI (phytotoxicity rating, scale 0-100) ([17]; 63 g ai/ha) | Pre-emerge Herbicidal Activity SORHA (phytotoxicity rating, scale 0-100) ([18]; 250 g ai/ha) | Pre-emerge Herbicidal Activity DIGSA (phytotoxicity rating, scale 0-100) ([21]; 63 g ai/ha)
100: Pre-emerge Herbicidal Activity AMARE (phytotoxicity rating, scale 0-100) ([10]; 250 g ai/ha) | Pre-emerge Herbicidal Activity IPOHE (phytotoxicity rating, scale 0-100) ([15]; 250 g ai/ha) | Pre-emerge Herbicidal Activity CASOB (phytotoxicity rating, scale 0-100) ([16]; 250 g ai/ha) | Pre-emerge Herbicidal Activity SETVI (phytotoxicity rating, scale 0-100) ([17]; 250 g ai/ha) | Pre-emerge Herbicidal Activity CHEAL (phytotoxicity rating, scale 0-100) ([19]; 63 g ai/ha) | Pre-emerge Herbicidal Activity CHEAL (phytotoxicity rating, scale 0-100) ([19]; 250 g ai/ha) | Pre-emerge Herbicidal Activity ABUTH (phytotoxicity rating, scale 0-100) ([20]; 63 g ai/ha) | Pre-emerge Herbicidal Activity ABUTH (phytotoxicity rating, scale 0-100) ([20]; 250 g ai/ha) | Pre-emerge Herbicidal Activity DIGSA (phytotoxicity rating, scale 0-100) ([21]; 250 g ai/ha) | Pre-emerge Herbicidal Activity ECHCG (phytotoxicity rating, scale 0-100) ([22]; 250 g ai/ha)
60: Pre-emerge crop damage RICE (phytotoxicity rating, scale 0-100) ([14]; 63 g ai/ha) | Pre-emerge Herbicidal Activity CASOB (phytotoxicity rating, scale 0-100) ([16]; 63 g ai/ha)
30: Post-emerge Herbicidal Activity CASOB [2, 24] | Post-emerge Herbicidal Activity SETVI [3, 24]
40: Post-emerge Herbicidal Activity CHEAL [5, 23] | Post-emerge Herbicidal Activity RICE (crop damage) ([12]; 63 g ai/ha) | Post-emerge Herbicidal Activity RICE (crop damage) ([12]; 250 g ai/ha) | Pre-emerge Herbicidal Activity ECHCG (phytotoxicity rating, scale 0-100) ([22]; 63 g ai/ha)
0: Post-emerge Herbicidal Activity CASOB [2, 23] | Post-emerge Herbicidal Activity SETVI [3, 23] | Post-emerge Herbicidal Activity SORHA [4, 23] | Post-emerge Herbicidal Activity SORHA [4, 24] | Post-emerge Herbicidal Activity DIGSA [8, 23] | Post-emerge Herbicidal Activity DIGSA [8, 24] | Post-emerge Herbicidal Activity ECHCG [9, 23] | Post-emerge Herbicidal Activity ECHCG [9, 24] | Post-emerge Herbicidal Activity CORN (crop damage) ([11]; 63 g ai/ha)
50: Post-emerge Herbicidal Activity IPOHE [1, 23] | Post-emerge Herbicidal Activity CHEAL [5, 24] | Post-emerge Herbicidal Activity AMARE [6, 24]

COc1c(Cl)cc(F)c(-n2c(=O)n3n(c2=O)CCCC3)c1NC(=O)c1ccc(F)cc1F [9-16]
10: Post-emerge Herbicidal Activity DIGSA [8, 25] | Post-emerge Herbicidal Activity ECHCG [9, 26] | Pre-emerge Herbicidal Activity SORHA ([18]; rate 63 g ai/ha) | Pre-emerge Herbicidal Activity DIGSA ([21]; rate 63 g ai/ha)
60: Pre-emerge Herbicidal Activity CASOB ([16]; rate 250 g ai/ha)
90: Post-emerge Herbicidal Activity IPOHE [1, 25] | Pre-emerge Herbicidal Activity CORN ([13]; rate 250 g ai/ha) | Pre-emerge Herbicidal Activity RICE ([14]; rate 250 g ai/ha)
5: Post-emerge Herbicidal Activity CORN ([11]; 63 g ai/ha)
0: Post-emerge Herbicidal Activity SETVI [3, 25] | Post-emerge Herbicidal Activity SORHA [4, 25] | Post-emerge Herbicidal Activity SORHA [4, 26] | Post-emerge Herbicidal Activity DIGSA [8, 26] | Post-emerge Herbicidal Activity ECHCG [9, 25] | Pre-emerge Herbicidal Activity CORN ([13]; rate 63 g ai/ha) | Pre-emerge Herbicidal Activity ECHCG ([22]; rate 63 g ai/ha)
50: Post-emerge Herbicidal Activity CASOB [2, 25]
20: Post-emerge Herbicidal Activity SETVI [3, 26] | Pre-emerge Herbicidal Activity CASOB ([16]; rate 63 g ai/ha)
75: Post-emerge Herbicidal Activity AMARE [6, 26]
39: Pre-emerge Herbicidal Activity SETVI ([17]; rate 63 g ai/ha)
70: Pre-emerge Herbicidal Activity AMARE ([10]; rate 63 g ai/ha) | Post-emerge Herbicidal Activity RICE ([12]; 250 g ai/ha) | Pre-emerge Herbicidal Activity IPOHE ([15]; rate 63 g ai/ha) | Pre-emerge Herbicidal Activity IPOHE ([15]; rate 250 g ai/ha) | Pre-emerge Herbicidal Activity SETVI ([17]; rate 250 g ai/ha)
85: Post-emerge Herbicidal Activity CASOB [2, 26]
100: Post-emerge Herbicidal Activity IPOHE [1, 26] | Post-emerge Herbicidal Activity ABUTH [7, 25] | Post-emerge Herbicidal Activity ABUTH [7, 26] | Pre-emerge Herbicidal Activity AMARE ([10]; rate 250 g ai/ha) | Pre-emerge Herbicidal Activity CHEAL ([19]; rate 63 g ai/ha) | Pre-emerge Herbicidal Activity CHEAL ([19]; rate 250 g ai/ha) | Pre-emerge Herbicidal Activity ABUTH ([20]; rate 63 g ai/ha) | Pre-emerge Herbicidal Activity ABUTH ([20]; rate 250 g ai/ha)
30: Post-emerge Herbicidal Activity AMARE [6, 25] | Post-emerge Herbicidal Activity RICE ([12]; 63 g ai/ha)
80: Post-emerge Herbicidal Activity CHEAL [5, 26] | Pre-emerge Herbicidal Activity RICE ([14]; rate 63 g ai/ha)
40: Pre-emerge Herbicidal Activity SORHA ([18]; rate 250 g ai/ha) | Pre-emerge Herbicidal Activity DIGSA ([21]; rate 250 g ai/ha) | Pre-emerge Herbicidal Activity ECHCG ([22]; rate 250 g ai/ha)
65: Post-emerge Herbicidal Activity CHEAL [5, 25] | Post-emerge Herbicidal Activity CORN ([11]; 250 g ai/ha)
